# Reference: US12318401B2, “Injectable shear-thinning hydrogel containing therapeutic agent for enhanced tumor therapy” (MAYO FOUNDATION FOR MEDICAL EDUCATION AND RESEARCH, priority 2021, dated 2025)
# System: B16F10 melanoma tumor cells
# Experiment: In vivo anti-cancer efficacy in melanoma tumor model
# Design: species or system C57B1/6J mice
# Conditions: subcutaneous B16F10 melanoma in mice
# Method: Finally, in vivo anti-cancer efficacy of DOX-STB was analyzed in a melanoma tumor model made by subcutaneous injection of B16F10 melanoma tumor cells into C57B1/6J mice (FIG. 7A).
compound,measurement,value
"COc1cccc2c1C(=O)c1c(O)c3c(c(O)c1C2=O)C[C@@](O)(C(=O)CO)C[C@@H]3O[C@H]1C[C@H](N)[C@H](O)[C@H](C)O1 [DOX, doxorubicin]",tumor size in gross,tumor size decreased
